# From doi:10.1101/2025.05.22.655130v1, “Design to Data for mutants of β-glucosidase B from Paenibacillus polymyxa: L336M, L336A, L336S, L336H, D35E, D35W” (biorxiv, 2025)
# Target: T1, β-glucosidase B (BglB) (Paenibacillus polymyxa, UniProt P22505)
# T1 construct: previously cloned in pET29b+, expressed in E. coli, purified by nickel IMAC; band about 50 kD
# Experiment: Michaelis-Menten, 4-nitrophenol release at […] nm
# Format: biochemical
# Conditions: 0.11-100 mM substrate, readings every minute for 15 min; triplicate
# T1 sequence (P22505 whole entry): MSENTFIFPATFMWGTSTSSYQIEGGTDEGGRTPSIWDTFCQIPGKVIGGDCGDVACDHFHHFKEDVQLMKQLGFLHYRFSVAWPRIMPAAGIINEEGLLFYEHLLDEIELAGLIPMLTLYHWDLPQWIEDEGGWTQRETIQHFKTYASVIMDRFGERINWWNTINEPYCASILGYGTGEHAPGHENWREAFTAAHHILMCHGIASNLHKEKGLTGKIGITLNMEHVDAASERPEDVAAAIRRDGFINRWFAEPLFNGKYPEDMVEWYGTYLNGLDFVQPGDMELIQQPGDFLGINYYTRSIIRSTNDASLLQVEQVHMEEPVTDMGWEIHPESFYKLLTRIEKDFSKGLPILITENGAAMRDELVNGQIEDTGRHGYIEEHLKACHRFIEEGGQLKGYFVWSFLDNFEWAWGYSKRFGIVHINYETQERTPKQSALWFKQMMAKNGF
structure (smiles),measurement,value
"O=[N+]([O-])c1ccc(O[C@@H]2O[C@H](CO)[C@@H](O)[C@H](O)[C@H]2O)cc1 [pNPG, p-nitrophenyl-beta-D-glucoside]",Km,3.93 ± 0.26 mM
